Measurements as given in patent publication US20170189496A1, “USE OF PHOSPHORYLATION PATHWAY-RELATED FACTOR IN REGULATING FUNCTION OF REGULATORY T CELL” (Institut Pasteur of Shanghai, Chinese Academy of Sciences, priority 2012, published 2017).
“Also recorded” adds a separate entry of the source.

Assays:
Assay type in all cases: cell-based
PIM2 = target: T1, PIM2 (Homo sapiens, UniProt Q9P1W9); experiment: FOXP3 phosphorylation induced by PIM2 in HEK293T cells (immunoblot); conditions: Myc-FOXP3 + FLAG-PIM2, 50 μM, 12 h
T1 construct: expressed in transfected cells; host or cells: HEK293T
Procedure: (§1) Myc-FOXP3, FLAG-PIM1, FLAG-PIM2, and FLAG-PIM3 were co-transfected into HEK293T cells. 36 h later, cells were treated with 50 μM of kaempferol for 12 h. Cells were collected 48 h after cell transfection.
(§2) Protein samples were subjected to SDS-PAGE, and then transferred to nitrocellulose membrane, which was then sealed in TBST containing 5% nonfat dry milk or 3% bovine serum albumin for 1 h. Primary antibody was added and incubated for 1 h and then HRP-conjugated secondary antibody was added and incubated for 1 h, and results shown by exposure with ECL substrates.
(§3) HEK293T cells were co-transfected, respectively, with Myc-FOXP3+FLAG-PIM1, Myc-FOXP3+FLAG-PIM2, and Myc-FOXP3+FLAG-PIM3. 36 h later, cells were treated with 50 μM kaempferol for 12 h. After 48 h. cells were collected and lysed with cell lysis buffer.

PIM3 = target: T2, PIM3 (Homo sapiens, UniProt Q86V86); experiment: FOXP3 phosphorylation induced by PIM3 in HEK293T cells (immunoblot); conditions: Myc-FOXP3 + FLAG-PIM3, 50 μM, 12 h
T2 construct: expressed in transfected cells; host or cells: HEK293T
Procedure: as §1, §2, §3

[1] = system: Jurkat cells stably expressing HA-FOXP3; experiment: FOXP3 protein degradation induced by PMA/LPS in Jurkat cells stably expressing HA-FOXP3 (immunoblot); conditions: PMA 25 ng/ml + LPS 1 ng/ml, 24 h; kaempferol 50 μM, PIM1 inhibitor 100 nM, PI3K inhibitor 10 μg/ml; DMSO control
Procedure: HA-FOXP3-Jurkat stable expression cells were treated with PMA (25 ng/ml) and LPS (1 ng/ml). 50 μM kaempferol, 100 nM PIM1 inhibitors (specifically of 4-[3-(4-chlorophenyl)-2,1-benzisoxazol-5-yl]-2-pyrimidinamine), and 10 μg/ml PI3K inhibitor (LY294002) were added, and DMSO as a control. Cells were collected 24 h later. The levels of FOXP3 and GAPDH were detected directly by immunoblot.
Human embryonic kidney cell line HEK293 was co-transfected with FUGW-HA-FOXP3, del 8.9 and VSV-G. Cell culture supernatants were collected 48 h and 72 h after transfection. Viruses were purified by ultracentrifugation and used to infect Jurkat E6.1 to ultimately obtain Jurkat cell lines stably expressing HA-FOXP3.
as §2
Jurkat cells stably expressing HA-FOXP3 were treated with PMA (25 ng/ml) and LPS (1 ng/ml). Each sample was added 50 μM kaempferol, 100 nM PIM1 inhibitor (i.e., 4-[3-(4-chlorophenyl)-2,1-benzisoxazol-5-yl]-2-pyrimidinamine), and 10 μg/ml PI3K inhibitor (LY294002). DMSO serves as a control. Cells were collected after 24 h.

[2] = system: induced Treg cells from human CD4+ CD45RA+ natural T cells; experiment: FOXP3 and CTLA4 expression in induced Treg (flow cytometry); conditions: 50 uM, 48 h, vs DMSO control group
Procedure: Human CD4+ CD45RA+ natural T cells (i.e., natural T cells rather than Treg cells) were sorted by BD FACS Aria II flow sorter and expanded by Bead-CD3/CD28 (2:1), IL-2 (100 U/ml), and TGF-β (1 ng/ml, 3 ng/ml, and 5 ng/ml) for 5 days. DMSO or kaempferol (50 uM) was added and treated for 48 h. Flow cytometry analysis was performed after PE-FOXP3 (FIG. 14B) and APC-CTLA4 (FIG. 14A) antibody staining.
Human CD4+ CD45RA+ natural T cells (i.e., natural T cells rather than Treg cells) were sorted by BD FACS Aria II flow sorter and expanded using Bead-CD3/CD28 (2:1). IL-2 (100 U/ml), and TGF-β (1 ng/ml, 3 ng/ml, and 5 ng/ml) for 5 days to obtain the induced Treg cells. DMSO or kaempferol (50 uM) was added and treated for 48 h.

PIM1 [3] = target: T3, PIM1 (Homo sapiens, UniProt P11309); experiment: FOXP3 S422 phosphorylation induced by PIM1 in HEK293T cells (immunoblot); parameters: expressed in transfected cells; host or cells: HEK293T
Procedure: Myc-FOXP3 and FLAG-PIM1 were co-transfected into HEK293T cells. After 36 h, cells were treated, respectively, with 50 nM, 10 nM, 2 nM, 0.4 nM of PIM1 inhibitor and 50 μM, 10 μM, 2 μM, 0.4 μM, 0.08 μM of kaempferol for 12 h. Cells were collected at 48 h after cell transfection.
as §1
(§4) FLAG-PIM1 was transfected and MYC-FOXP3 and FLAG-PIM1 co-transfected into HEK293T cells. After 36 h, HEK293 was used as blank control group and each group was treated with 50 μM of kaempferol for 12 h. After 48 h, cells collected and lysed by cell lysis buffer. The levels of pS422-FOXP3, FOXP3, phosphorylated-histone H3 (Ser10), histone H3, and GAPDH were detected directly by immunoblot.
Protein samples were subjected to SDS-PAGE, and then transferred to nitrocellulose membrane, which was then sealed in TBST containing 5% nonfat dry milk or 3% bovine serum albumin for 1 h. […]
HEK293T cells were transfected with FLAG-PIM1, and co-transfected with MYC-FOXP3 and FLAG-PIM1. […] The levels of pS422-FOXP3, FOXP3, histone H3 Ser10 phosphorylation, histone H3, and GAPDH were directly detected by immunoblot (results shown in FIG. 12).

PIM1 [4] = target: T3, PIM1; experiment: Histone H3 S10 phosphorylation induced by PIM1 in HEK293T cells (immunoblot); parameters: expressed in transfected cells; host or cells: HEK293T; conditions: 50 μM, 12 h
Procedure: FLAG-PIM1 was transfected into HEK293T cells. 36 h later, cells were treated with 50 μM of kaempferol for 12 h. 48 h after cell transfection, cells were treated in whole cell lysis solution. The levels of phosphorylated (Phospho)-histone H3S10, histone H3, and PIM1 were detected directly by immunoblot.
as §4, §2
HEK293T cells were co-transfected with MYC-FOXP3 and FLAG-PIM1. 36 h later, cells were treated with 50 μM of kaempferol for 12 h. Cells were collected at 48h after transfection and directly sonicated in SDS-loading buffer, and lysed by boiling.
HEK293T cells were transfected with FLAG-PIM1, and co-transfected with MYC-FOXP3 and FLAG-PIM1. 36 h later, HEK293 was used as blank control group and each group was treated with 50 μM of kaempferol for 12 h, respectively. Cells were collected alter 48 h and lysed with cell lysis buffer. The levels of pS422-FOXP3, FOXP3, histone H3 Ser10 phosphorylation, histone H3, and GAPDH were directly detected by immunoblot (results shown in FIG. 12).

[5] = HEK293T transfected with FLAG-PIM1

T3 sequence (P11309 whole entry): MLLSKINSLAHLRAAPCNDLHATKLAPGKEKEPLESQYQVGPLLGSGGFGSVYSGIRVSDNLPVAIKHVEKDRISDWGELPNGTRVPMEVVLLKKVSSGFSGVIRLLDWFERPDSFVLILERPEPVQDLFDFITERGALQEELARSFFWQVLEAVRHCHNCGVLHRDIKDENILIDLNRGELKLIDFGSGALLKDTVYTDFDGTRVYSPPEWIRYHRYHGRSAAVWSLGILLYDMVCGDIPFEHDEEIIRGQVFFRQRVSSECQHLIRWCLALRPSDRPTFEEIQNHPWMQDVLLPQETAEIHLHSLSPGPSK
T1 sequence (Q9P1W9 whole entry): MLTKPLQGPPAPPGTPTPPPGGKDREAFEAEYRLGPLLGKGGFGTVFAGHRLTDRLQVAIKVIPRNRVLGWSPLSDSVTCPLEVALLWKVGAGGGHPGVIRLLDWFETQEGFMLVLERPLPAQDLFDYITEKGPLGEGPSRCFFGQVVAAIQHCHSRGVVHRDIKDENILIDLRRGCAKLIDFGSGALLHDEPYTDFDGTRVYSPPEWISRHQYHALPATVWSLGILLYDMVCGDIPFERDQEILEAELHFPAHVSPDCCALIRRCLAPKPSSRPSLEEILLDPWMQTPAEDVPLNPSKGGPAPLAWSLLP

## O=c1c(O)c(-c2ccc(O)cc2)oc2cc(O)cc(O)c12 [kaempferol]
PIM2
  FOXP3 phosphorylation levels induced by PIM2: does not affect
PIM3
  FOXP3 phosphorylation levels induced by PIM3: does not affect
[1]
  FOXP3 protein degradation: can inhibit
[2]
  CLTA4+ FOXP3+ Treg cell levels: significantly increase
  FOXP3 expression levels: significantly increase
PIM1 [3]; MYC-FOXP3 + FLAG-PIM1, 50, 10, 2, 0.4, 0.08 μM for 12 h
  FOXP3 S422 phosphorylation, dose response: inhibits FOXP3 S422 phosphorylation in a dose-dependent manner
PIM1 [3]; Myc-FOXP3 + FLAG-PIM1, 50 μM, 12 h
  FOXP3 S422 phosphorylation induced by PIM1: specifically inhibits; also recorded: can inhibit
PIM1 [4]; [5]
  PIM1 expression levels: does not affect
  histone H3 S10 phosphorylation induced by PIM1: inhibits; also recorded: can inhibit
PIM1 [4]; HEK293 blank control group (no PIM1 transfection)
  histone H3 S10 phosphorylation in the control group: does not affect
